Measurements: patent publication EP4813984A1 (Jiangsu Hengrui Pharmaceuticals Co., Ltd., priority 2023, dated 2025)

Target: T1, hGLP-1 receptor (Homo sapiens, UniProt P43220)
T1 construct: expressed in transfected cells; host or cells: CHO-K1 (stably transfected with hGLP-1 receptor plasmid and CRE-luc plasmid)
Test: Agonist activity against GLP-1 receptor (CRE-luciferase reporter, ONE-Glo Luciferase Assay System)
Format: cell-based
Details: CHO-K1/CRE-luc/hGLP-1 receptor cells; 5 h incubation with compound; chemiluminescence readout
Text: This experiment was intended to test the agonist activity of compound molecules against hGLP-1 receptor and evaluate the in vitro activity of the molecules according to EC50. In this experiment, ONE-Glo™ Luciferase Assay System (ONE-Glo™ Luciferase Assay System, Promega, E6110) was used. Under the action of the compound molecules, GLP-1R downstream signaling pathways were activated to cause elevated cAMP level. The binding of cAMP to CRE could initiate the transcriptional expression of a CRE downstream luciferase gene. The luciferase could emit fluorescence when reacting with a substrate thereof. The fluorescence signal, which reflected the activity of the compound for agonizing GLP-1 receptor, was measured by means ONE-Glo™ reagent.
A stably transfected CHO-K1/CRE-luc/hGLP-1 receptor cell strain (hGLP-1 receptor plasmid constructed in-house and CRE-luc plasmid Promega E8471) was constructed. CHO-K1/CRE-luc/hGLP-1 receptor cells were digested, centrifuged, and then resuspended. The single cell suspension was uniformly mixed and adjusted to a viable cell density of 2.78 × 10^5 cells/ml with a cell culture medium (DME/F-12 + 10% FBS). The resulting solution was added to a 96-well cell culture plate at 90 µL/well (Corning, #3903). The culture plate was incubated in an incubator for 16 h (37°C, 5% CO2).
The compound was dissolved in DMSO to prepare a stock solution with an initial concentration of 20 mM. The starting concentration of the small molecule compound was 0.02 mM. The compound was subjected to 3-fold dilution for 10 points, wherein the 11th point was DMSO. Another 96-well plate was taken, to which was added 95 µL/well of a cell culture medium (DME/F-12 + 10% FBS), followed by 5 µL/well of test samples with different concentrations. The mixtures were uniformly mixed. Next, 10 µL/well of test samples with different concentrations were added to the cell culture plate, with two duplicate wells for each sample. The culture plate was incubated in an incubator for 5 h (37°C, 5% CO2). The 96-well cell culture plate was taken out. 100 µL/well of ONE-Glo™ reagent was added, followed by incubation at room temperature for 10 minutes. Chemiluminescence was measured in and by a microplate reader (PHERAstar FS, BMG labtech).
Data were processed and analyzed using Microsoft Excel and Graphpad Prism 10. EC50 values of the compounds were obtained. Table 1. Agonist activity of the compounds of the present invention against hGLP-1 receptor

T1 sequence (P43220 24-463): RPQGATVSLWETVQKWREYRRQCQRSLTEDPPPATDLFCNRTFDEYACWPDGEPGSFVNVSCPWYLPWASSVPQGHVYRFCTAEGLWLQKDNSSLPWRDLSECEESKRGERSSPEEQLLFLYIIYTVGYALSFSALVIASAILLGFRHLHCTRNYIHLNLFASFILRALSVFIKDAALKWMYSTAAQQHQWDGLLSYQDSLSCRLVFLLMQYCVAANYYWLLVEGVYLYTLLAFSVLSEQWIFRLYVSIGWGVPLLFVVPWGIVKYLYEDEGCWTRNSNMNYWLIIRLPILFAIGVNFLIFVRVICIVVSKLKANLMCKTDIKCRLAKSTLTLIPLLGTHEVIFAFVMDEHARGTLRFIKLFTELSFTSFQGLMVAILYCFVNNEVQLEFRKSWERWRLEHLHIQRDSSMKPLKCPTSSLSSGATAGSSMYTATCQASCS

Structure (SMILES)	EC50 [nM]	Emax [fold]
C[C@H]1c2c(nn(-c3ccc(F)c(C4CC4)c3)c2N2C[C@@H]3COc4cc5c(cnn5C5CC5)c(F)c4N3C2=O)CCN1C(=O)c1cc2cc([C@H]3CCOC(C)(C)C3)ccc2n1[C@@]1(c2noc(=O)[nH]2)C[C@@H]1C [Compound 46, (R)-7-cyclopropyl-2-((S)-2-(3-cyclopropyl-4-fluorophenyl)-5-(5-((S)-2,2-dimethyltetrahydro-2H-pyran-4-yl)-1-((1S,2S)-2-methyl-1-(5-oxo-4,5-dihydro-1,2,4-oxadiazol-3-yl)cyclopropyl)-1H-indole-2-carbonyl)-4-methyl-4,5,6,7-tetrahydro-2H-pyrazolo[4,3-c]pyridin-3-yl)-10-fluoro-2,3,3a,4-tetrahydro-1H,7H-imidazo[1',5':4,5][1,4]oxazino[3,2-f]indazol-1-one]	0.05	16.76
Cc1cc(-n2nc3c(c2N2C[C@@H]4COc5cc6c(cnn6C(C)(C)C)c(F)c5N4C2=O)[C@H](C)N(C(=O)c2cc4cc([C@H]5CCOC(C)(C)C5)ccc4n2[C@@]2(c4noc(=O)[nH]4)C[C@@H]2C)CC3)cc(C)c1F [Compound 50, (R)-7-(tert-butyl)-2-((S)-5-(5-((S)-2,2-dimethyltetrahydro-2H-pyran-4-yl)-1-((1S,2S)-2-methyl-1-(5-oxo-4,5-dihydro-1,2,4-oxadiazol-3-yl)cyclopropyl)-1H-indole-2-carbonyl)-2-(4-fluoro-3,5-dimethylphenyl)-4-methyl-4,5,6,7-tetrahydro-2H-pyrazolo[4,3-c]pyridin-3-yl)-10-fluoro-2,3,3a,4-tetrahydro-1H,7H-imidazo[1',5':4,5][1,4]oxazino[3,2-f]indazol-1-one]	0.04	18.87
Cc1cc(-n2nc3c(c2N2C[C@@H]4COc5c(c(F)cc6c5cnn6C5CC5)N4C2=O)[C@H](C)N(C(=O)c2cc4cc([C@H]5CCOC(C)(C)C5)ccc4n2[C@@]2(c4noc(=O)[nH]4)C[C@@H]2C)CC3)cc(C)c1F [Compound 37, (R)-1-cyclopropyl-7-((S)-5-(5-((S)-2,2-dimethyltetrahydro-2H-pyran-4-yl)-1-((1S,2S)-2-methyl-1-(5-oxo-4,5-dihydro-1,2,4-oxadiazol-3-yl)cyclopropyl)-1H-indole-2-carbonyl)-2-(4-fluoro-3,5-dimethylphenyl)-4-methyl-4,5,6,7-tetrahydro-2H-pyrazolo[4,3-c]pyridin-3-yl)-10-fluoro-5,5a,6,7-tetrahydro-1H,8H-imidazo[1',5':4,5][1,4]oxazino[2,3-e]indazol-8-one]	0.03	18.06
Cc1cc(-n2nc3c(c2N2C[C@@H]4COc5cc6c(cnn6CC(F)(F)F)c(F)c5N4C2=O)[C@H](C)N(C(=O)c2cc4cc([C@H]5CCOC(C)(C)C5)ccc4n2[C@@]2(c4noc(=O)[nH]4)C[C@@H]2C)CC3)cc(C)c1F [Compound 29, (R)-2-((S)-5-(5-((S)-2,2-dimethyltetrahydro-2H-pyran-4-yl)-1-((1S,2S)-2-methyl-1-(5-oxo-4,5-dihydro-1,2,4-oxadiazol-3-yl)cyclopropyl)-1H-indole-2-carbonyl)-2-(4-fluoro-3,5-dimethylphenyl)-4-methyl-4,5,6,7-tetrahydro-2H-pyrazolo[4,3-c]pyridin-3-yl)-10-fluoro-7-(2,2,2-trifluoroethyl)-2,3,3a,4-tetrahydro-1H,7H-imidazo[1',5':4,5][1,4]oxazino[3,2-f]indazol-1-one]	0.02	19.58
